Laboratory results taken from patent US12624044B2, “SMARCA degraders and uses thereof” (Kymera Therapeutics, Inc., priority 2019, dated 2026).

Biological target: SMARCA2 (Homo sapiens, UniProt P51531)
Assay: MSD SMARCA2 degradation in A549 cell line
Assay type: cell-based
Conditions: 24 h; for Dmax: A549, A549 cells; for DC50: A549 cells, read-out: SMARCA2 MSD A549 degradation 24 h: Average external-Abs DC50
Summary of the method: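 SMARCA2 remaining was measured by MSD electrochemiluminescence on RIPA lysates (anti-SMARCA2 plus SULFO-TAG anti-rabbit). Prior exposure: 24 h of A549 cells to a 10-point, 3-fold dilution series topping at 1000 nM final; Dmax % given as graded codes.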

SMARCA2, sequence (P51531 whole entry): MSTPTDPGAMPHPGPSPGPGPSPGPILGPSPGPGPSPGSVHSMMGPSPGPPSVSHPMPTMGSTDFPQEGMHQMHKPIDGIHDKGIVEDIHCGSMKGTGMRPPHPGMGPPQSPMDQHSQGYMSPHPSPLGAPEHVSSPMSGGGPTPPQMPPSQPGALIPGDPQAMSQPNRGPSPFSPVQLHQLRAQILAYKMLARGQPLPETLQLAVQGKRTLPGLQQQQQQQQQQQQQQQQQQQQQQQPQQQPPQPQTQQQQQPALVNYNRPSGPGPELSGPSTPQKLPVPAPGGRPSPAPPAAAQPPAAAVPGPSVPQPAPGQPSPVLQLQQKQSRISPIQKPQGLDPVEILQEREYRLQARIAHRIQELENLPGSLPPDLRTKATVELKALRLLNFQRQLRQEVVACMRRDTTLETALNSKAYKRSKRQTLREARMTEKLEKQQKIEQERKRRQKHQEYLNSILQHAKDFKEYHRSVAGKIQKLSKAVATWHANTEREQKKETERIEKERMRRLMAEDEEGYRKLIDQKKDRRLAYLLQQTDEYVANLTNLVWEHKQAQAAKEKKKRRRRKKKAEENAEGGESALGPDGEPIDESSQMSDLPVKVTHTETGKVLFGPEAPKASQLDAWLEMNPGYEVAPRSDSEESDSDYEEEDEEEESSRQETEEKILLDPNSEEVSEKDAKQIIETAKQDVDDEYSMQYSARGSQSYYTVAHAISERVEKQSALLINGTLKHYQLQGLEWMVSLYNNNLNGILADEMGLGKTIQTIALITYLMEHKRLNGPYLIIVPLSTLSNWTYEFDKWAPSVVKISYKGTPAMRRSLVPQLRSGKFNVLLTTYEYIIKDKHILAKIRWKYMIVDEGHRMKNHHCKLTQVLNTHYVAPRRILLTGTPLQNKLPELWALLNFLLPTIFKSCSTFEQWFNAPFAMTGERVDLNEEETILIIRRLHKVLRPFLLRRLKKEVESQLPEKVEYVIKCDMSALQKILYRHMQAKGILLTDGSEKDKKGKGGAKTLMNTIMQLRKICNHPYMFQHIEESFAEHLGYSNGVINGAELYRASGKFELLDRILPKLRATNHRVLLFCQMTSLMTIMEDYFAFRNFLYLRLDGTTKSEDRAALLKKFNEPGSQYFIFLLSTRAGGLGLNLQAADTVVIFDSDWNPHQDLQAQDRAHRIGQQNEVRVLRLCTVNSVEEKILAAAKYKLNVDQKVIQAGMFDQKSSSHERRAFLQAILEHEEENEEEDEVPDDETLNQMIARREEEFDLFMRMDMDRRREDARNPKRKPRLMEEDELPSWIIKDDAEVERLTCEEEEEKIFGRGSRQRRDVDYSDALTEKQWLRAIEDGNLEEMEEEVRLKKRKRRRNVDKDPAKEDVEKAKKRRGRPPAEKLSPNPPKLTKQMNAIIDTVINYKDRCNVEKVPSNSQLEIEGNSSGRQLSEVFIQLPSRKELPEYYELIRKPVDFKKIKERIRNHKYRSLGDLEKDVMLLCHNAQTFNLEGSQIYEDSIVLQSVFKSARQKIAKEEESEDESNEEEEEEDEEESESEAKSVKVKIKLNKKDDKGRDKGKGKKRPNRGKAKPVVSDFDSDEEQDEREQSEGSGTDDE

| SMILES | Dmax [%] | DC50 [nM] |
| --- | --- | --- |
| COCC(=O)N1CCCc2cc(OCC(=O)NCCCN3CCC(c4cnc(N5C6CCC5CN(c5cc(-c7ccccc7O)nnc5N)C6)nc4)CC3)ccc21 [I-526] | < 50 | > 1000 |
| Cc1ncsc1-c1ccc(CNC(=O)[C@@H]2C[C@@H](O)CN2C(=O)[C@@H](NC(=O)C[C@H]2C[C@H](N3CCC(c4cnc(N5C6CCC5CN(c5cc(-c7ccccc7O)nnc5N)C6)nc4)CC3)C2)C(C)(C)C)cc1 [I-391] | > 90 | 100 to 500 |
| Cc1ncsc1-c1ccc(CNC(=O)[C@@H]2C[C@@H](O)CN2C(=O)[C@@H](NC(=O)CCCN2CCC(c3cccc(C#Cc4cc(NC(=O)Nc5cc(F)ncc5CO)ccn4)c3)CC2)C(C)(C)C)cc1 [I-499, (2S,4R)-1-[(2S)-2-[4-[4-[3-[2-[4-[[2-fluoro-5-(hydroxymethyl)-4-pyridyl]carbamoylamino]-2-pyridyl]ethynyl]phenyl]-1-piperidyl]butanoylamino]-3,3-dimethyl-butanoyl]-4-hydroxy-N-[[4-(4-methylthiazol-5-yl)phenyl]methyl]pyrrolidine-2-carboxamide] | < 50 | > 1000 |
| Cc1ncsc1-c1ccc(CNC(=O)[C@@H]2C[C@@H](O)CN2C(=O)[C@@H](NC(=O)CNCc2ccc(C#Cc3cc(NC(=O)Nc4cc(F)ncc4CO)ccn3)cc2)C(C)(C)C)cc1 [I-491] | < 50 | > 1000 |
| Nc1nnc(-c2ccccc2O)cc1N1CC2CCC(C1)N2c1ncc(C2CCN(CCCCCCCCOc3ccc(Oc4ccc(N(Cc5ccccc5)C(=O)CCl)cc4)cc3)CC2)cn1 [I-532] | 50 to 70 | > 1000 |
| Cc1ncsc1-c1ccc(CNC(=O)[C@@H]2C[C@@H](O)CN2C(=O)[C@@H](NC(=O)C[C@H]2C[C@@H](N3CCC(c4cnc(N5C6CCC5CN(c5cc(-c7ccccc7O)nnc5N)C6)nc4)CC3)C2)C(C)(C)C)cc1 [I-392] | 70 to 90 | 100 to 500 |
| Cn1c(=O)n(C2CCC(=O)NC2=O)c2ccc(CCCCCCCCCNCc3ccc(C#Cc4cc(NC(=O)Nc5cc(F)ncc5CO)ccn4)cc3)cc21 (centres unmarked) [I-303] | < 50 | > 1000 |
| Cc1ncsc1-c1ccc(CNC(=O)[C@@H]2C[C@@H](O)CN2C(=O)[C@@H](NC(=O)[C@H]2CC[C@@H](c3cnc(N4C5CCC4CN(c4cc(-c6ccccc6O)nnc4N)C5)nc3C)CC2)C(C)(C)C)cc1 [I-440] | > 90 | 100 to 500 |
| Cc1ncsc1-c1ccc(CNC(=O)[C@@H]2C[C@@H](O)CN2C(=O)[C@@H](NC(=O)CCCCCNCc2cccc(C#Cc3cc(NC(=O)Nc4cc(F)ncc4CO)ccn3)c2)C(C)(C)C)cc1 [I-489] | < 50 | > 1000 |
| Cc1ncsc1-c1ccc(CNC(=O)[C@@H]2C[C@@H](O)CN2C(=O)C(NC(=O)C2(F)CC2)C2CCC(N(C)CCCCCCCc3cnc(N4C5CCC4CN(c4cc(-c6ccccc6O)nnc4N)C5)nc3)CC2)cc1 (stereo partly drawn) [I-520, (2S,4R)-1-[2-[4-[7-[2-[3-[3-amino-6-(2-hydroxyphenyl)pyridazin-4-yl]-3,8-diazabicyclo[3.2.1]octan-8-yl]pyrimidin-5-yl]heptyl-methyl-amino]cyclohexyl]-2-[(1-fluorocyclopropanecarbonyl)amino]acetyl]-4-hydroxy-N-[[4-(4-methylthiazol-5-yl)phenyl]methyl]pyrrolidine-2-carboxamide] | < 50 | > 1000 |
| Cc1ncsc1-c1ccc(CNC(=O)[C@@H]2C[C@@H](O)CN2C(=O)[C@@H](NC(=O)[C@H]2CC3(C[C@H](CN4CCC(n5cc(-c6cc(-c7ccccc7O)nnc6N)cn5)CC4)C3)C2)C(C)(C)C)cc1 (some centres unmarked) [I-432] | > 90 | 100 to 500 |
| CN(Cc1cccc(C#Cc2cc(NC(=O)Nc3cc(F)ncc3CO)ccn2)c1)C1CCN(C(=O)c2cccc3c2n(C)c(=O)n3C2CCC(=O)NC2=O)CC1 (centres unmarked) [I-320] | < 50 | > 1000 |
| Cc1ncsc1-c1ccc(CNC(=O)[C@@H]2C[C@@H](O)CN2C(=O)[C@@H](NC(=O)[C@H]2CC[C@H](N(C)Cc3cnc(N4C5CCC4CN(c4cc(-c6ccccc6O)nnc4N)C5)nc3)CC2)C(C)(C)C)cc1 [I-372] | 50 to 70 | 501 to 1000 |
| O=C1CCC(n2c(=O)oc3c(CCCOC4CCN(Cc5cccc(C#Cc6cc(NC(=O)Nc7cc(F)ncc7CO)ccn6)c5)CC4)cccc32)C(=O)N1 (centres unmarked) [I-317] | < 50 | > 1000 |
| Cc1ncsc1-c1ccc(CNC(=O)[C@@H]2C[C@@H](O)CN2C(=O)[C@@H](NC(=O)[C@H]2CC[C@H](C(=O)N(C)Cc3cnc(N4C5CCC4CN(c4cc(-c6ccccc6O)nnc4N)C5)nc3)CC2)C(C)(C)C)cc1 [I-396] | 70 to 90 | 100 to 500 |
| Cc1ncsc1-c1ccc(CNC(=O)[C@@H]2C[C@@H](O)CN2C(=O)[C@@H](NC(=O)[C@H]2CC[C@@H](N(C)Cc3cnc(N4C5CCC4CN(c4cc(-c6ccccc6O)nnc4N)C5)nc3)CC2)C(C)(C)C)cc1 [I-371] | > 90 | 100 to 500 |

| SMILES | Dmax [%] | DC50 [nM] |
| --- | --- | --- |
| Cc1ncsc1-c1ccc(CNC(=O)[C@@H]2C[C@@H](O)CN2C(=O)[C@@H](NC(=O)C2CC=C(c3nccc(N4C5CCC4CN(c4cc(-c6ccccc6O)nnc4N)C5)n3)CC2)C(C)(C)C)cc1 (some centres unmarked) [I-418] | > 90 | 100 to 500 |
| Cn1c(=O)n(C2CCC(=O)NC2=O)c2cccc(CCCOC3CCN(Cc4ccc(C#Cc5cc(NC(=O)Nc6cc(F)ncc6CO)ccn5)cc4)CC3)c21 (centres unmarked) [I-307] | < 50 | > 1000 |
| Cc1ncsc1-c1ccc(CNC(=O)[C@@H]2C[C@@H](O)CN2C(=O)[C@@H](NC(=O)CN2CCC(c3ccc(C#Cc4cc(NC(=O)Nc5cc(F)ncc5CO)ccn4)cc3)CC2)C(C)(C)C)cc1 [I-500, (2S,4R)-1-((S)-2-(2-(4-(4-((4-(3-(2-fluoro-5-(hydroxymethyl)pyridin-4-yl)ureido)pyridin-2-yl)ethynyl)phenyl)piperidin-1-yl)acetamido)-3,3-dimethylbutanoyl)-4-hydroxy-N-(4-(4-methylthiazol-5-yl)benzyl)pyrrolidine-2-carboxamide] | < 50 | > 1000 |
| Cn1c(=O)n(C2CCC(=O)NC2=O)c2ccc(CCCOCCCCN3CCN(Cc4cccc(C#Cc5cc(NC(=O)Nc6cc(F)ncc6CO)ccn5)c4)CC3)cc21 (centres unmarked) [I-314] | < 50 | > 1000 |
| Cc1ncsc1-c1ccc(CNC(=O)[C@@H]2C[C@@H](O)CN2C(=O)[C@@H](NC(=O)[C@H]2C[C@H](CN3CCC(c4cnc(N5C6CCC5CN(c5cc(-c7ccccc7O)nnc5N)C6)nc4)CC3)C2)C(C)(C)C)cc1 [I-376] | 50 to 70 | 501 to 1000 |
| Cc1ncsc1-c1ccc(CNC(=O)[C@@H]2C[C@@H](O)CN2C(=O)[C@@H](NC(=O)CCCCCCCNCc2cccc(C#Cc3cc(NC(=O)Nc4cc(F)ncc4CO)ccn3)c2)C(C)(C)C)cc1 [I-490] | < 50 | > 1000 |
| Cc1ncsc1-c1ccc(CNC(=O)[C@@H]2C[C@@H](O)CN2C(=O)[C@@H](NC(=O)[C@@H]2CC3CCC2C[C@@H]3c2cnc(N3C4CCC3CN(c3cc(-c5ccccc5O)nnc3N)C4)nc2)C(C)(C)C)cc1 (some centres unmarked) [I-410] | > 90 | 100 to 500 |
| Cc1ncsc1-c1ccc(CNC(=O)[C@@H]2C[C@@H](O)CN2C(=O)[C@@H](NC(=O)[C@H]2CC[C@@H](Cc3ccc(-c4cnc(N5C6CCC5CN(c5cc(-c7ccccc7O)nnc5N)C6)nc4)cc3)CC2)C(C)(C)C)cc1 [I-413] | 70 to 90 | 100 to 500 |
| Cn1c(=O)n(C2CCC(=O)NC2=O)c2cccc(CN3CCC4(CCN(Cc5cccc(C#Cc6cc(NC(=O)Nc7cc(F)ncc7CO)ccn6)c5)CC4)CC3)c21 (centres unmarked) [I-319] | < 50 | > 1000 |
| Cc1ncsc1-c1ccc(CNC(=O)[C@@H]2C[C@@H](O)CN2C(=O)[C@@H](NC(=O)C2(F)CC2)C2CCC(N(C)CCCC#Cc3cnc(N4C5CCC4CN(c4cc(-c6ccccc6O)nnc4N)C5)nc3)CC2)cc1 (some centres unmarked) [I-517] | 50 to 70 | 501 to 1000 |
| Cc1ncsc1-c1ccc(CNC(=O)[C@@H]2C[C@@H](O)CN2C(=O)[C@@H](NC(=O)N2CCC3(CCC(c4cnc(N5C6CCC5CN(c5cc(-c7ccccc7O)nnc5N)C6)nc4)CC3)CC2)C(C)(C)C)cc1 [I-510] | > 90 | 100 to 500 |
| Cc1ncsc1-c1ccc(CNC(=O)[C@@H]2C[C@@H](O)CN2C(=O)[C@@H](NC(=O)[C@H]2C[C@@H](N(C)Cc3cnc(N4C5CCC4CN(c4cc(-c6ccccc6O)nnc4N)C5)nc3)C2)C(C)(C)C)cc1 [I-370] | 70 to 90 | 100 to 500 |
| CN(Cc1ccc(C#Cc2cc(NC(=O)Nc3cc(F)ncc3CO)ccn2)cc1)CC1CCN(Cc2cccc3c2n(C)c(=O)n3C2CCC(=O)NC2=O)CC1 (centres unmarked) [I-308] | < 50 | > 1000 |
| Cc1ncsc1-c1ccc(CNC(=O)[C@@H]2C[C@@H](O)CN2C(=O)[C@@H](NC(=O)[C@H]2CC[C@@H](N3CCC(N4CCC(n5cc(-c6cc(-c7ccccc7O)nnc6N)cn5)CC4)CC3)CC2)C(C)(C)C)cc1 [I-435] | < 50 | > 1000 |
| Cc1ncsc1-c1ccc(CNC(=O)[C@@H]2C[C@@H](O)CN2C(=O)[C@@H](NC(=O)[C@H]2CC[C@H](N3CCC(CN4CCC(Cn5cc(-c6cc(-c7ccccc7O)nnc6N)cn5)CC4)CC3)CC2)C(C)(C)C)cc1 [I-397] | < 50 | > 1000 |
